Columns and labels:
[1] = system: atmospheric hydrogen sulfide; assay: Sewerage system field trial (Example 1): atmospheric hydrogen sulfide logged at lift stations LS481 and LS480
Text: The collection system consisted of four serial master lift stations LS 479, LS482, LS 481, and LS 480 feeding wastewater to a central treatment plant WWTP as depicted in FIG. 2.
Calcium hydroxide (with or without anthraquinone) feed rate was dependent mainly on the wastewater flow rate.
Data collected included atmospheric hydrogen sulfide collected every five minutes with monitor/loggers within the monitoring manhole at lift station LS481 and inside the lift station LS480, and dissolved sulfide grab samples at each as well as treatment plant WWTP. Nitrate residual and pH data were also collected. […] The chemical feed line was disposed to feed into the manhole about 50 feet upstream of lift station LS482.
Over the next few weeks the controller pH set point was adjusted until the desired atmospheric pH was attained downstream at lift station LS481.
Two batches of a formulation of calcium hydroxide supplemented with anthraquinone were fed to determine the effectiveness of the combination for controlling odor.
The primary monitoring point for atmospheric hydrogen sulfide was at lift station LS481. The primary monitoring point for dissolved sulfide was the plant influent. During the period from June 23 to July 14 background data was gathered (FIG. 4) to reflect the system operating on nitrate salt feed at all four lift stations.
The data was tabulated for every day on which no calcium hydroxide was fed and that nitrate salt was fed at all four lift stations.

[2] = system: atmospheric hydrogen sulfide; assay: Example 2: slug dose of anthraquinone alone, all other chemical feed off at LS482, atmospheric hydrogen sulfide by OdaLog monitor/loggers
Method: In order to gather the required information, the two OdaLog® hydrogen sulfide monitor/loggers were deployed in the manhole just prior to lift station LS481 prior to 10:00 a.m. on day one. At 10:00 a.m. on day one all chemical feed was turned off at lift station LS482. At 10:00 a.m. on day two a ten gallon slug of anthraquinone (AQUIT) was added to the flow through the manhole at lift station LS482. At 10:00 a.m. on day three, regular chemical feed was resumed at lift station LS482. The OdaLog® monitor/loggers were retrieved on day six and downloaded to retrieve the atmospheric hydrogen sulfide concentrations before, during, and following the trial.
Data was collected over a period of several days to include a full day prior to the test and a full day after the test as summarized in the graph of FIG. 7.
The average atmospheric hydrogen sulfide concentration for the 24 hour period with no chemical additive was about 1,032 ppmv. During the following 24 hour period during which the effect of the slug dose of anthraquinone, the atmospheric hydrogen sulfide concentration averaged about 999 ppmv; the hydrogen sulfide concentration was thus reduced by about 3.2 percent.

[3] = 10/14 to 10/17, after 10 gal anthraquinone slug on 10/13 at LS482, with calcium hydroxide slurry 258 GPD, nitrate salt solution 197 GPD

O=C1c2ccccc2C(=O)c2ccccc21 [Anthraquinone, anthraquinone]
LS480 Avg Atm H2S [1, 3]: 305 ppmv
LS481 Avg Atm H2S [1, 3]: 100 ppmv
decrease in atmospheric hydrogen sulfide concentration at the downstream monitoring point ([1]; anthraquinone added to the alkaline material used for pH adjustment, versus alkaline material without it): 21%
atmospheric hydrogen sulfide downstream dropped ([1]; anthraquinone added with calcium hydroxide to the sewer upstream of the sampling point (see Table 8)): 37.5%
reduction in the hydrogen sulfide concentration at the downstream monitoring point lift station LS481 ([1]; one time slug of anthraquinone along with the calcium hydroxide feed, over the next four days): about 38%
average atmospheric hydrogen sulfide concentration ([2]; 24 hour period under the effect of a ten gallon slug of anthraquinone alone, preceding 24 hours with no chemical additive about 1,032 ppmv): about 999 ppmv
hydrogen sulfide concentration reduced by ([2]; ten gallon slug of anthraquinone alone versus preceding 24 hours with no chemical additive): about 3.2%

Source: patent publication US20110233146A1, “S[…] CONTROL COMPOSITION, SYSTEMS, AND RELATED METHODS THEREFOR” (Siemens Water Technologies Corp., priority 2009, published 2011)
